Data published in patent publication US6307014A (priority 1998, dated 2001).

Test system: cholinergic synapse of the buccal ganglion
Assay type: cell-based, Aplysia californica

“Gla Cys Cys Gla Asp Gly BrW Cys Cys Thr Ala Ala OHP [P11.1]” was tested, and the “reversibility of the IPSC decrease” value was “reversed by washing”.
